Laboratory results reported in ChEMBL document CHEMBL4052696, “Varic acid analogues from fungus as PTP1B inhibitors: Biological evaluation and structure-activity relationships” (Bioorg Med Chem Lett, 2017).
pIC50: −log10 of the molar value.

The compounds below were run on Rattus norvegicus (assay: Toxicity in type 2 diabetic Wistar rat assessed as induction of hypoglycemia at 10 mg/kg, ip dosed 30 mins before insulin injection and measured 30 mins post insulin injection by glucose-oxidase assay). Conditions: in vivo, 0.5 h.
Assay type: organism-based
In the case of `CCCc1cc(OC(=O)c2c(O)cc(OC(=O)c3c(O)cc(O)cc3CCC)cc2CCC)cc(O)c1C(=O)O`, the Activity was “Non-Toxic”.

These compounds were tested against Receptor-type tyrosine-protein phosphatase F (Homo sapiens, UniProt P10586) (assay: Inhibition of PTPLAR (unknown origin) using p-nitrophenyl phosphate substrate incubated for 30 mins). Conditions: not given.
Sequence of Receptor-type tyrosine-protein phosphatase F (P10586 whole entry): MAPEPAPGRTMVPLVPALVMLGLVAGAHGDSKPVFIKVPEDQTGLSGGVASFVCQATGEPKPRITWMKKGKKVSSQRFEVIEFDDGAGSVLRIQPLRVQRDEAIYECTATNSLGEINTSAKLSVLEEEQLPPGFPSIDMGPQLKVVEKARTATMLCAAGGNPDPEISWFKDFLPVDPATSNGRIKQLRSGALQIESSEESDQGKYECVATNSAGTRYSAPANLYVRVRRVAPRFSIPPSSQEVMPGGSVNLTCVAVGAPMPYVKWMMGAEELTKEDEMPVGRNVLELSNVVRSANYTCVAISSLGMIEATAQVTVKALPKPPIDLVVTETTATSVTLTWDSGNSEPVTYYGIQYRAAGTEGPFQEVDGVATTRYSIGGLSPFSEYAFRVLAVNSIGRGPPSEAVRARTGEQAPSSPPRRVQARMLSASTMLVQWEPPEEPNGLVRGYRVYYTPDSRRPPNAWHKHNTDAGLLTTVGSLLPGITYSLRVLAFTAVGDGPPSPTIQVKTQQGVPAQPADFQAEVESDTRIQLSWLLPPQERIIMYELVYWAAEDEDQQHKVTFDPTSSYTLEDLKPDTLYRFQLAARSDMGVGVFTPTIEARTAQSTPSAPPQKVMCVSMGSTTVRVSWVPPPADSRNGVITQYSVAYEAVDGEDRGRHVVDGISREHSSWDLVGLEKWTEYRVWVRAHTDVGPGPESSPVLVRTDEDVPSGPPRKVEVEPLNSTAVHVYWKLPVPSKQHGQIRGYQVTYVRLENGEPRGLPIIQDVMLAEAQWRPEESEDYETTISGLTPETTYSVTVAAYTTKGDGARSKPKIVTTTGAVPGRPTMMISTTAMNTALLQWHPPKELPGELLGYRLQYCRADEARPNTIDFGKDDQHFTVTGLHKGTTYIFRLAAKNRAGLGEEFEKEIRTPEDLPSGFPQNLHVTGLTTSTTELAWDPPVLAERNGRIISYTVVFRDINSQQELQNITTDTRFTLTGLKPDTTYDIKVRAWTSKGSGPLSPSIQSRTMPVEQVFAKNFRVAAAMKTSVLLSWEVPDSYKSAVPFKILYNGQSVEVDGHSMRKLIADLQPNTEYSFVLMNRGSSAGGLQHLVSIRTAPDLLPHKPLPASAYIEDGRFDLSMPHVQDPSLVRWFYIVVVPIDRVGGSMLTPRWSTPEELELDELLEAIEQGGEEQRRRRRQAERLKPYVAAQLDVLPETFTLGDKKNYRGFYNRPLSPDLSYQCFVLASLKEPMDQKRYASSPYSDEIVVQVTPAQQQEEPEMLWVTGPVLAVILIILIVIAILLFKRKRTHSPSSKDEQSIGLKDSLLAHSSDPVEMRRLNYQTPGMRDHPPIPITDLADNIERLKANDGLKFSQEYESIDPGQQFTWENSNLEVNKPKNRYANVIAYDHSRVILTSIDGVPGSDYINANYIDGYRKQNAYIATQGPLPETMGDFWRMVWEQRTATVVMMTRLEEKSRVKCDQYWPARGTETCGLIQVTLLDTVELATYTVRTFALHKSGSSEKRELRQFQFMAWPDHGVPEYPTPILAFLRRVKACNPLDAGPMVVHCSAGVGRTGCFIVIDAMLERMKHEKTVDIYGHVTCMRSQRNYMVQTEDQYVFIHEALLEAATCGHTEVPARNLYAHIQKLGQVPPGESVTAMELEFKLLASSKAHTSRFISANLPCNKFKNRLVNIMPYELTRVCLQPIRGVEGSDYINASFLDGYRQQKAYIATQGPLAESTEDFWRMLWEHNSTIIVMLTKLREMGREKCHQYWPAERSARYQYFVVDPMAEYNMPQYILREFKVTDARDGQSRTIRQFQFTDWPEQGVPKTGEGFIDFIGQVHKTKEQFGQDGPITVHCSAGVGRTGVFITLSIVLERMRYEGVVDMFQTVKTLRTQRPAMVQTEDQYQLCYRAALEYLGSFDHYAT
For `CCC/C=C/C=C/CCc1cc(O)cc(O)c1C(=O)O`, the pIC50 was < 4.70. For `CCCc1cc(OC(=O)c2c(O)cc(O)cc2CCC)cc(O)c1C(=O)O`, the pIC50 was < 4.70. In the case of `CCCc1cc(OC(=O)c2c(O)cc(OC(=O)c3c(O)cc(O)cc3CCC)cc2CCC)cc(O)c1C(=O)O`, the pIC50 was < 4.70. `CCCc1cc(O)cc(OC(=O)c2c(O)cc(O)cc2CCC)c1` was tested, and the pIC50 was < 4.70. `CCCc1cc(O)cc(O)c1C(=O)O` was tested, and the pIC50 was < 4.70. In the case of `CCCc1cc(OC)cc(OC)c1C(=O)O`, the pIC50 was < 4.70.

Each compound was assayed against T1, Tyrosine-protein phosphatase non-receptor type 2 (Homo sapiens, UniProt P17706) (assay: Inhibition of TCPTP (unknown origin) using p-nitrophenyl phosphate substrate incubated for 30 mins). Conditions: not given.
T1 sequence (P17706 whole entry): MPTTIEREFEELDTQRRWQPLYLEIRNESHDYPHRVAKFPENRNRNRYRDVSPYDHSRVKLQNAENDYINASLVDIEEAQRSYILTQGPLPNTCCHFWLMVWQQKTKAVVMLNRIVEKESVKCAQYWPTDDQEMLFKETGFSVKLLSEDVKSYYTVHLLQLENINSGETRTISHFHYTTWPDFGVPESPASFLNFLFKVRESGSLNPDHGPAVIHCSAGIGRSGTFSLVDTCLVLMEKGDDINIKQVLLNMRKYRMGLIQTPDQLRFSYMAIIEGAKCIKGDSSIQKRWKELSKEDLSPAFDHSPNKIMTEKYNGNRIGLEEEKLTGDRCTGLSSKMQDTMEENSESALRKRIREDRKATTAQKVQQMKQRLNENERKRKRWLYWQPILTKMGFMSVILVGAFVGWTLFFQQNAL
`CCC/C=C/C=C/CCc1cc(O)cc(O)c1C(=O)O` was tested, and the pIC50 was 5.32. In the case of `CCCc1cc(OC(=O)c2c(O)cc(O)cc2CCC)cc(O)c1C(=O)O`, the pIC50 was < 4.70. `CCCc1cc(OC(=O)c2c(O)cc(OC(=O)c3c(O)cc(O)cc3CCC)cc2CCC)cc(O)c1C(=O)O` was tested, and the pIC50 was 4.75. For `CCCc1cc(O)cc(OC(=O)c2c(O)cc(O)cc2CCC)c1`, the pIC50 was < 4.70. In the case of `CCCc1cc(O)cc(O)c1C(=O)O`, the pIC50 was < 4.70. For `CCCc1cc(OC)cc(OC)c1C(=O)O`, the pIC50 was < 4.70.

The compounds below were run on Rattus norvegicus (assay: Toxicity in normal Wistar rat assessed as induction of hypoglycemia at 10 mg/kg, ip dosed 30 mins before insulin injection and measured 30 mins post insulin injection by glucose-oxidase assay). Conditions: in vivo, 0.5 h.
Assay type: organism-based
`CCCc1cc(OC(=O)c2c(O)cc(OC(=O)c3c(O)cc(O)cc3CCC)cc2CCC)cc(O)c1C(=O)O` was tested, and the Activity was “Non-Toxic”.

What follows are compounds tested against T2, Tyrosine-protein phosphatase non-receptor type 1 (Homo sapiens, UniProt P18031) (assay: Inhibition of PTP1B (unknown origin) using p-nitrophenyl phosphate substrate incubated for 30 mins). Conditions: not given.
T2 sequence (P18031 whole entry): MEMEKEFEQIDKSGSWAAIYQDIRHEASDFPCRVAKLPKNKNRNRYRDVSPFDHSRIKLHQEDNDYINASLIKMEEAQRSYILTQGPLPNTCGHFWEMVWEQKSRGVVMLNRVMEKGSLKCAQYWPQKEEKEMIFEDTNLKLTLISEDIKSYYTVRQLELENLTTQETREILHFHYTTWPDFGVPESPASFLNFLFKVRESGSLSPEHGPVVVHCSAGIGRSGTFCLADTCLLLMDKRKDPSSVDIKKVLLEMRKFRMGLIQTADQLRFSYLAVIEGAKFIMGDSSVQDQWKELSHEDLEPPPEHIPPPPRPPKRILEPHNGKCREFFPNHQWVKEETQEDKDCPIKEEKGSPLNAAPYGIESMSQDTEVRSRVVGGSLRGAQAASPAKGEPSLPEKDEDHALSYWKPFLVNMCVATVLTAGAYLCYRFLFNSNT
Compound `CCC/C=C/C=C/CCc1cc(O)cc(O)c1C(=O)O` has a pIC50 of 5.37. Work on `CCCc1cc(OC(=O)c2c(O)cc(O)cc2CCC)cc(O)c1C(=O)O` yielded a pIC50 of 6.29. For `CCCc1cc(OC(=O)c2c(O)cc(OC(=O)c3c(O)cc(O)cc3CCC)cc2CCC)cc(O)c1C(=O)O`, the pIC50 was 6.77. `CCCc1cc(O)cc(OC(=O)c2c(O)cc(O)cc2CCC)c1` was tested, and the pIC50 was 6.14. In the case of `CCCc1cc(O)cc(O)c1C(=O)O`, the pIC50 was 5.80. With `CCCc1cc(OC)cc(OC)c1C(=O)O` the pIC50 was < 4.70.

Each compound was assayed against T3, Tyrosine-protein phosphatase non-receptor type 11 (Homo sapiens, UniProt Q06124) (assay: Inhibition of SHP2 (unknown origin) using p-nitrophenyl phosphate substrate incubated for 30 mins). Conditions: not given.
T3 sequence (Q06124 whole entry): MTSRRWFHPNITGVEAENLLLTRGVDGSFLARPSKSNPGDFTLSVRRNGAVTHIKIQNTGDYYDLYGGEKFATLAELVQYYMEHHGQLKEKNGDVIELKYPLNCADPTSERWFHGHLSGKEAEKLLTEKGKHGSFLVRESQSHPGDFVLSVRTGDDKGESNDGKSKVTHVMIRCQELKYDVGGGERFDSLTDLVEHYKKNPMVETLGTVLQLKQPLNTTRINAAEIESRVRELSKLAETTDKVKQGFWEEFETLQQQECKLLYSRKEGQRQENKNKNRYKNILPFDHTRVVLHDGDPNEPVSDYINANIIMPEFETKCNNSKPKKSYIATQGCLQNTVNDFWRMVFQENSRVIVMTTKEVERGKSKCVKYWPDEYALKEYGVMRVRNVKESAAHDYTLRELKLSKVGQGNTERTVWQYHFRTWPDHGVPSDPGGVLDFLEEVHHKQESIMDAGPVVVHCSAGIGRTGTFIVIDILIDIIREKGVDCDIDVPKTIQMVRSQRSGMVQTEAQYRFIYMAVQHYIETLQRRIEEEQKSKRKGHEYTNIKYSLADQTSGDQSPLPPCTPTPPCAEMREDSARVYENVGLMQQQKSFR
`CCC/C=C/C=C/CCc1cc(O)cc(O)c1C(=O)O` gave a pIC50 of 6.74. With `CCCc1cc(OC(=O)c2c(O)cc(O)cc2CCC)cc(O)c1C(=O)O` the pIC50 was < 4.70. `CCCc1cc(OC(=O)c2c(O)cc(OC(=O)c3c(O)cc(O)cc3CCC)cc2CCC)cc(O)c1C(=O)O` was tested, and the pIC50 was 5.56. Compound `CCCc1cc(O)cc(OC(=O)c2c(O)cc(O)cc2CCC)c1` has a pIC50 of 4.82. `CCCc1cc(O)cc(O)c1C(=O)O` showed a pIC50 of 4.90. `CCCc1cc(OC)cc(OC)c1C(=O)O` was tested, and the pIC50 was < 4.70.
